# Results from patent US8106055B2, “Substituted amide compounds” (Gruenenthal GmbH, priority 2007, dated 2012).
# Target: T1, serotonin (5-HT) reuptake (Rattus norvegicus, UniProt P31652)
# T1 construct: synaptosomes are freshly isolated from areas of the rat brain; from tissue; host or cells: rat brain synaptosomes (P2 fraction)
# Assay: Inhibition of serotonin (5HT) reuptake in synaptosomes from rat brain
# Format: biochemical
# Conditions: test concentration of 10 μM
# Outline: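 Compounds screened at 10 μM and reported as percent inhibition of serotonin uptake. Uptake measured in a freshly prepared P2 synaptosomal fraction from rat brain.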
# T1 sequence (P31652 whole entry): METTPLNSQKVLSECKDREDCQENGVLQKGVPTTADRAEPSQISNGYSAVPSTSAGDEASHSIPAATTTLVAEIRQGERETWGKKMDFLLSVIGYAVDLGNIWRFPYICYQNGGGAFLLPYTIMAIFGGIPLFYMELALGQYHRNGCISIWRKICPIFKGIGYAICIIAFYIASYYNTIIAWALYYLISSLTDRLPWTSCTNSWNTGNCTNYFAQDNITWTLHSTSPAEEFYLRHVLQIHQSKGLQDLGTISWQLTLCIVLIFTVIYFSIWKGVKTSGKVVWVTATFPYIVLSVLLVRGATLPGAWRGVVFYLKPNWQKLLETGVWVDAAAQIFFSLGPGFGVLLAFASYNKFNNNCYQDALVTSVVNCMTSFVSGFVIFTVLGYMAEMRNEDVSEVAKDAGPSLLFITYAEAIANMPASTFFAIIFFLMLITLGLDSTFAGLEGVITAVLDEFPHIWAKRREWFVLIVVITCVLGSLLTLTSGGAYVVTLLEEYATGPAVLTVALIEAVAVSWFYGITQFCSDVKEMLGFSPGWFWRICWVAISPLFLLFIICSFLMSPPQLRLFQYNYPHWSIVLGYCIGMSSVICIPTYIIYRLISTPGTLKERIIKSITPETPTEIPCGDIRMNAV
row,SMILES,"5-HT (inhibition of reuptake of serotonin, % inhibition) [%]"
1,COc1cc(C)c(S(=O)(=O)N2CCN(CCOCC(=O)NCC3CCC(C(CCc4ccccc4)N(C)C)CC3)CC2)c(C)c1C (stereo not drawn) [Example 528],94
2,Cc1ccc(S(=O)(=O)N2CCC(OCC(=O)NCC3CCC(C(CCc4ccccc4)N(C)C)CC3)C2)cc1 (stereo not drawn) [Example 538],91
3,Cc1cc(C)c(S(=O)(=O)N2CCC(OCC(=O)NCCC3CCC(C(c4ccc(F)cc4)N(C)C)CC3)C2)c(C)c1 (stereo not drawn) [Example 501],77
4,COc1cc(C)c(S(=O)(=O)N(CCOCC(=O)NCC2CCC(C(c3ccc(Cl)cc3)N(C)C)CC2)Cc2ccccc2)c(C)c1 (stereo not drawn) [Example 473],64
5,COc1cc(C)c(S(=O)(=O)N2CCC(OCC(=O)NCC3CCC(C(c4ccc(F)cc4)N(C)C)CC3)CC2)c(C)c1C (stereo not drawn) [Example 527],96
6,COc1ccc(S(=O)(=O)N2CCCCC2CCOCC(=O)NCC2CCC(C(CCc3ccccc3)N(C)C)CC2)cc1 (stereo not drawn) [Example 535],85
7,COc1ccc(S(=O)(=O)N(C)CCOCC(=O)NCC2CCC(C(c3ccc(F)cc3)N(C)C)CC2)cc1OC (stereo not drawn) [Example 514],70
8,COc1cc(C)c(S(=O)(=O)N2CCC(CCOCC(=O)NCC3CCC(C(c4ccc(F)cc4)N(C)C)CC3)CC2)c(C)c1C (stereo not drawn) [Example 481],88
9,COc1cc(C)c(S(=O)(=O)N(C)CCOCC(=O)NCC2CCC(C(c3ccc(F)cc3)N(C)C)CC2)c(C)c1 (stereo not drawn) [Example 458],85
10,CN(C)C(c1ccc(F)cc1)C1CCC(CCNC(=O)COC2CCCN(S(=O)(=O)c3ccccc3)C2)CC1 (stereo not drawn) [Example 520],97
11,COc1ccc(S(=O)(=O)N2CCCC2COCC(=O)NC2CCC(C(c3ccc(F)cc3)N(C)C)CC2)cc1 (stereo not drawn) [Example 461],94
12,COc1cc(C)c(S(=O)(=O)N2CCC(OCC(=O)NCCC3CCC(C(c4ccc(Cl)cc4)N(C)C)CC3)C2)c(C)c1 (stereo not drawn) [Example 492],97
13,CN(C)C(c1ccc(F)cc1)C1CCC(CCNC(=O)COC2CCN(S(=O)(=O)c3ccccc3)C2)CC1 (stereo not drawn) [Example 530],89
14,CCN(CCOCC(=O)NCC1CCC(C(CCc2ccccc2)N(C)C)CC1)S(=O)(=O)c1c(C)cc(OC)c(C)c1C (stereo not drawn) [Example 536],84
15,COc1cc(C)c(S(=O)(=O)N2CCC(OCC(=O)NC3CCC(C(c4ccc(F)cc4)N(C)C)CC3)CC2)c(C)c1C (stereo not drawn) [Example 454],95
16,CN(C)C(c1ccc(Cl)cc1)C1CCC(CNC(=O)COCCN(C)S(=O)(=O)c2ccc(Cl)cc2Cl)CC1 (stereo not drawn) [Example 459],68
17,CN(C)C(c1ccc(F)cc1)C1CCC(CCNC(=O)COC2CCN(S(=O)(=O)c3ccc(F)cc3)C2)CC1 (stereo not drawn) [Example 518],102
18,Cc1cc(C)c(S(=O)(=O)N2CCC(OCC(=O)NCCC3CCC(C(c4ccc(Cl)cc4)N(C)C)CC3)C2)c(C)c1 (stereo not drawn) [Example 506],86
19,Cc1ccc(S(=O)(=O)N2CCC(OCC(=O)NCCC3CCC(C(c4ccc(F)cc4)N(C)C)CC3)C2)cc1 (stereo not drawn) [Example 491],90
20,CN(C)C(c1ccc(F)cc1)C1CCC(NC(=O)COCC2CCCN(S(=O)(=O)c3ccccc3)C2)CC1 (stereo not drawn) [Example 478],97
21,CN(C)C(c1ccc(F)cc1)C1CCC(CCNC(=O)COC2CCN(S(=O)(=O)c3cccc(C(F)(F)F)c3)C2)CC1 (stereo not drawn) [Example 466],89

row,SMILES,"5-HT (inhibition of reuptake of serotonin, % inhibition) [%]"
1,CN(C)C(c1ccc(F)cc1)C1CCC(CCNC(=O)COCCC2CCN(S(=O)(=O)c3ccccc3)CC2)CC1 (stereo not drawn) [Example 470],82
2,CN(C)C(CCc1ccccc1)C1CCC(CNC(=O)COCCN(C)S(=O)(=O)c2ccc(Cl)cc2Cl)CC1 (stereo not drawn) [Example 513],89
3,CN(C)C(c1ccc(F)cc1)C1CCC(CCNC(=O)COCCN2CCN(S(=O)(=O)c3ccccc3)CC2)CC1 (stereo not drawn) [Example 493],96
4,COc1cc(C)c(S(=O)(=O)N(C)CCOCC(=O)NCC2CCC(C(CCc3ccccc3)N(C)C)CC2)c(C)c1 (stereo not drawn) [Example 525],84
5,COc1cc(C)c(S(=O)(=O)N2CCC(CCOCC(=O)NCC3CCC(C(CCc4ccccc4)N(C)C)CC3)CC2)c(C)c1C (stereo not drawn) [Example 521],89
6,CN(C)C(c1ccc(F)cc1)C1CCC(CNC(=O)COC2CCN(S(=O)(=O)c3ccc(Cl)cc3)C2)CC1 (stereo not drawn) [Example 517],86
7,CN(C)C(c1ccc(F)cc1)C1CCC(CCNC(=O)COC2CCN(S(=O)(=O)c3ccc(Cl)cc3)C2)CC1 (stereo not drawn) [Example 464],88
8,COc1ccc(S(=O)(=O)N2CCCC2COCC(=O)NCC2CCC(C(c3ccc(F)cc3)N(C)C)CC2)cc1 (stereo not drawn) [Example 511],98
9,CN(C)C(c1ccc(F)cc1)C1CCC(CCNC(=O)COCC2CCCN(S(=O)(=O)c3ccccc3)C2)CC1 (stereo not drawn) [Example 479],97
10,COc1cc(C)c(S(=O)(=O)N2CCC(OCC(=O)NCC3CCC(C(c4ccc(Cl)cc4)N(C)C)CC3)CC2)c(C)c1C (stereo not drawn) [Example 498],88
11,COc1cc(C)c(S(=O)(=O)N(CCOCC(=O)NCC2CCC(C(CCc3ccccc3)N(C)C)CC2)Cc2ccccc2)c(C)c1 (stereo not drawn) [Example 542],87
12,COc1cc(C)c(S(=O)(=O)N2CCC(CCOCC(=O)NCCC3CCC(C(c4ccc(F)cc4)N(C)C)CC3)CC2)c(C)c1C (stereo not drawn) [Example 510],99
13,CN(C)C(c1ccc(F)cc1)C1CCC(CNC(=O)COC2CCN(S(=O)(=O)c3ccccc3)C2)CC1 (stereo not drawn) [Example 532],99
14,COc1cc(C)c(S(=O)(=O)N2CCC(OCC(=O)NCC3CCC(C(c4ccc(F)cc4)N(C)C)CC3)C2)c(C)c1 (stereo not drawn) [Example 541],95
15,CN(C)C(c1ccc(F)cc1)C1CCC(NC(=O)COC2CCN(S(=O)(=O)c3ccccc3)C2)CC1 (stereo not drawn) [Example 463],97
16,CN(C)C(c1ccc(F)cc1)C1CCC(CCNC(=O)COCCN(C)S(=O)(=O)c2ccc(F)cc2)CC1 (stereo not drawn) [Example 487],101
17,CN(C)C(c1ccc(F)cc1)C1CCC(NC(=O)COCCN2CCN(S(=O)(=O)c3ccccc3)CC2)CC1 (stereo not drawn) [Example 502],97
18,CN(C)C(CCc1ccccc1)C1CCC(CNC(=O)COCCN2CCN(S(=O)(=O)c3ccccc3)CC2)CC1 (stereo not drawn) [Example 526],90
19,CN(C)C(c1ccc(F)cc1)C1CCC(CCNC(=O)COC2CCN(S(=O)(=O)c3ccc(Cl)cc3Cl)C2)CC1 (stereo not drawn) [Example 456],88
20,COc1ccc(S(=O)(=O)N2CCCCC2COCC(=O)NCCC2CCC(C(c3ccc(Cl)cc3)N(C)C)CC2)c(OC)c1 (stereo not drawn) [Example 474],88
21,Cc1cc(C)c(S(=O)(=O)N2CCC(OCC(=O)NCC3CCC(C(CCc4ccccc4)N(C)C)CC3)C2)c(C)c1 (stereo not drawn) [Example 475],87
